Peptide text beside a SMILES is read from it. * marks the point of attachment. X1 = O=C1c2cccc(O)c2C(=O)c2c(O)cc(C(=O)*)cc21
Assays:
[1] = system: rat model of RIR injury; assay: Rat RIR injury model, H&E staining of the retina; assay type: in vivo; settings: intravitreal 4 µL, 20 µM final in vitreous, 24 h after RIR; 7 days; n = 6
Procedure: (§1) Erythromycin eye ointment was used to prevent bacterial infection.
The changes in retinal morphology caused by RIR injury were visualized by H&E staining. At 7 days after the intravitreal injection of Rh‐GFFYE, the eyeballs were removed and then fixed in 4% paraformaldehyde. The eye tissue was then embedded in paraffin, and 4‐µm‐thick slices were prepared. The H&E staining procedure described previously was followed.^[ [59] ^]

[2] = system: R28 cells; assay: Mitochondrial membrane potential, JC-1 staining after OGD; assay type: cell-based; settings: 20 µM, 24 h prior to OGD; JC-1, CLSM
Procedure: A mitochondrial membrane potential assay kit with JC‐1 (Beyotime, Beijing, China) was used to monitor the changes in the mitochondrial membrane potential of R28 cells subjected to OGD following the procedure recommended by the supplier. Briefly, R28 cells were seeded in dishes at a density of 1 × 10^5 mL^−1 cells and cultured overnight. The cells were treated with Rh‐GFFYE, rhein, Nap‐GFFYE, or Ac‐GFFYE at a concentration of 20 µM for 24 h prior to OGD. Following treatment and recovery, the cells were washed three times with PBS and then incubated with 20 µM JC‐1 for 20 min at 37 °C. After removing the JC‐1 staining solution, the cells were washed three times with JC‐1 dyeing buffer, and 2 mL DMEM was added for CLSM imaging.

[3] = system: R28 cells; assay: In vitro OGD model, cellular ATP content (CellTiter-Lumi Plus); assay type: cell-based; settings: 24 h pretreatment, varying concentrations (Rh-GFFYE 10, 20, 40 µM); n = 3
Procedure: (§2) The retinal precursor cell line R28 was purchased from Kerafast (Boston, MA, USA) and cultured according to the procedures recommended by the supplier. Briefly, the cells were grown and maintained in DMEM complete medium containing 420 mL DMEM, 15 mL sodium bicarbonate (Sigma‐Aldrich, St. Louis, MO, USA), 50 mL calf serum, 5 mL MEM non‐essential amino acids, 5 mL L‐glutamine (GIBCO, Grand Island, NY, USA), and 0.625 mL Gentamicin (80 mg mL^−1; Solarbio Life Sciences Co., Ltd, Beijing, China) at 37 °C in a humidified atmosphere containing 5% CO2. The stock solutions of Rh‐GFFYE and control compounds were diluted to varying concentrations with DMEM complete medium just before cell treatment.
An in vitro OGD model was constructed based on the method detailed by Ryou et al.^[ [56] ^] Briefly, R28 cells were cultured in a glucose‐free medium and subjected to hypoxia (1% O2, 5% CO2) for 24 h. […] The ATP levels were measured using a CellTiter‐Lumi Plus luminescent cell viability assay (Beyotime, Beijing, China). The cell membrane integrity of the R28 cells was evaluated by LDH release assay (Beyotime, Beijing, China).

[4] = system: bone marrow‐derived macrophages (BMDMs); assay: LPS-induced cytokine release, ELISA; assay type: cell-based, mouse; settings: 20 µM, LPS 100 ng/mL, 24 h
Procedure: The isolation of mouse BMDMs was performed according to the method of Pineda‐Torra et al.^[ [57] ^] Briefly, the femurs and tibias of C57BL/6 mice were carefully separated and transferred into PBS containing 10% penicillin/streptomycin. The BMDMs were flushed out with a syringe and filtered through a 70‐µm strainer. To further purify the BMDMs, lysis buffer was added to remove the red blood cells. The BMDMs were cultured in a DMEM medium containing macrophage colony‐stimulating factor (MCE, Monmouth Junction, NJ, USA).
BMDMs (1 × 10^5 mL^−1 cells in a volume of 1 mL per well in a 24‐well plate) were pretreated with Rh‐GFFYE, rhein, Nap‐GFFYE, and Ac‐GFFYE at a concentration of 20 µM for 1 h prior to the addition of LPS (100 ng mL^−1) for the specified times (6, 24, and 48 h). The supernatants were collected, and the concentrations of IL‐1β and IL‐6 in the culture medium were measured using ELISA kits (Beyotime, Beijing, China) according to the manufacturer's instructions.

[5] = system: rat model of RIR injury; assay: Rat RIR injury model, immunofluorescence of RGC markers (BRN3A, β‐III‐TUBULIN); assay type: in vivo; settings: 7 d after intravitreal injection; n = 6
Procedure: as §1
The RIR‐injured rats were euthanized at 7 days after the intravitreal injection of Rh‐GFFYE. Immediately after removal, the eyeball was fixed in 4% paraformaldehyde for 2 h at 4 °C, dehydrated overnight in 30% sucrose solution, embedded in an optimal cutting temperature compound embedding bottom box (17 × 17 × 5 mm), and stored at −80 °C. Slices with thicknesses of 8 µm were created using a frozen slicer at −22 °C. The slices were placed on adhesive slides and dried at room temperature for >30 min before proceeding to the next step. For immunofluorescent staining, the retinal sections were permeabilized with enhanced immunostaining permeabilization buffer (Beyotime, Beijing, China) for 20 min, blocked with blocking buffer (Beyotime, Beijing, China), and incubated overnight at 4 °C with the following primary antibodies: anti‐β‐III‐TUBULIN, anti‐IBA1, anti‐GFAP, anti‐BRN3A (Abcam, UK), anti‐CD86, and anti‐CD206 (Cell Signaling Technology, Danvers, MA, USA). After rinsing three times with PBS, the sections were incubated with secondary antibodies at room temperature for 2 h, rinsed three times with PBS, and counterstained with DAPI. Sealed with a cover glass, the slides were then observed by CLSM.

[6] = pH between 8.0 and 9.4; cited from earlier work
Excerpt: Herb‐derived natural products are regarded as promising drug resources due to their anti‐inflammatory and antioxidant effects.^[ [11] ^] Rhein (4,5‐dihydroxyanthraquinone‐2‐carboxylic acid), is an anthraquinone and one of the pharmacologically active components extracted from Rheum.^[ [12] ^] […] Due to its good anti‐apoptotic and anti‐inflammatory effects, rhein has also been used to treat ischemia/reperfus ...

[7] = system: R28 cells; assay: Intracellular ROS, H2DCF-DA staining after OGD; assay type: cell-based; settings: 20 µM, 24 h before OGD, CLSM
Procedure: R28 cells were seeded at a density of 1 × 10^5 mL^−1 cells in 35‐mm glass‐bottom Petri dishes and incubated overnight. Before OGD injury, the cells were treated with Rh‐GFFYE, rhein, Nap‐GFFYE, or Ac‐GFFYE at a concentration of 20 µM for 24 h. The OGD‐injured cells were then assayed for intracellular ROS production by H2DCF‐DA staining. Briefly, the cells were treated with 10 µM H2DCF‐DA for 30 min in the cell culture incubator. To remove the unincorporated dye, the cells were washed with PBS and the oxidation of H2DCF‐DA was detected by CLSM.

[8] = In vivo safety evaluation after intravitreal injection; set-up: species or system rat
Excerpt: For safety evaluation, rats were intravitreally injected Rh‐GFFYE nanofibers. 7 days after injection, ERG was used to detect the retinal function and H&E staining was used to detect the morphology of retina. Orbital blood was taken to detect the contents of ALT and AST in plasma. The major organs (heart, liver, spleen, lung, kidney) were harvested for H&E staining to observe changes in each major organ.

[9] = system: R28 cells; assay: Safety evaluation under normoxic conditions (ATP and LDH); assay type: cell-based; settings: 24 h
Procedure: as §2
An in vitro OGD model was constructed based on the method detailed by Ryou et al.^[ [56] ^] Briefly, R28 cells were cultured in a glucose‐free medium and subjected to hypoxia (1% O2, 5% CO2) for 24 h. The cells were then re‐oxygenated (21% O2, 5% CO2) for 6 h to simulate RIR. The ATP levels were measured using a CellTiter‐Lumi Plus luminescent cell viability assay (Beyotime, Beijing, China). The cell membrane integrity of the R28 cells was evaluated by LDH release assay (Beyotime, Beijing, China).

[10] = system: rat model of RIR injury; settings: in vivo
Procedure: Prior to establishing the model, each anesthetized rat was administered with 0.3% ofloxacin eye drops. Topyramide eye solution was used to dilate the pupil, and proparacaine hydrochloride was used as an eye anesthetic. A 30‐gauge needle containing a balanced salt solution was cannulated into the anterior chamber. […] The sham operation, which served as the control, was performed without elevating the IOP. After 60 min, the needle was withdrawn, the IOP was normal, the posterior segment was pale, and the blood supply was restored, confirming the successful establishment of the RIR injury model. […] During the experiment, each animal's body temperature was kept between 36.5 and 37°C.
At 24 h after establishing the RIR injury model, the rats were randomly divided into five groups: Sham, Saline, Rh‐GFFYE, Ac‐GFFYE, and Nap‐GFFYE. The methods for anesthesia and pupil dilation were the same as described above. Intravitreal injection was accomplished using a Hamilton syringe, and 4 µL of Rh‐GFFYE was injected to obtain a final rhein concentration of 20 µM in the vitreous humor.^[ [58] ^]
Before ERG recording, all the rats were randomly divided into five groups (Sham, Saline, Nap‐GFFYE, Ac‐GFFYE, and Rh‐GFFYE) and adapted in the dark for 12 h. […] For scotopic ERG, the responses to white flashes of 3.00 cd∙s∙m^−2 were recorded. […]

[11] = Concentration of rhein in retinas by UPLC-MS/MS; assay type: in vivo, rat
Procedure: To further evaluate the concentration of rhein in retinas, the retinas were collected at 7 and 21 days after a single intravitreal injection of Rh‐GFFYE. The retinas were homogenized using a cryogenic homogenizer (ServiceBio, Wuhan, China), and the supernatants were collected after centrifugation for further analysis. The samples were suspended in ethyl acetate and centrifuged for 5 min to obtain the supernatants which were then dried under nitrogen gas flow. The residues were dissolved with mobile phase solution and then quantified using the UPLC‐MS/MS (AB Sciex Triple Quad TM 4500 system, MA, USA) assay.

[12] = In vivo retinal distribution by CLSM (Cy5.5 label); set-up: species or system rat
Excerpt: To evaluate the distribution of Rh‐GFFYE in RIR‐injured and normal retinas, rats were divided into two groups. At 3, 7, 14, and 21 days after a single intravitreal injection of Cy5.5‐Rh‐GFFYE, the rats were killed and retinas were obtained. Retinal cryosections and retinal whole flat mounts were examined by CLSM to observe the distribution of Rh‐GFFYE in vivo.

[13] = 7 days after intravitreal injection, n = 6
[14] = day 7 after single intravitreal injection of Rh-GFFYE, retina homogenate

Compound: Nap‐GFFYE [control peptide compound in which rhein is replaced with 1‐naphthylacetic acid (Nap)]
- IPL thickness after RIR injury [1]: did not ameliorate
- mitochondrial membrane potential (ΔΨm) under OGD [2]: no recovery
- recovery of cell viability (ATP content) under OGD [3]: no restorative effect
- anti‐inflammatory effect (release of IL‐1β and IL‐6) [4]: did not show anti‐inflammatory effects
- number of RGCs (BRN3A positive) compared with Saline group [5]: No significant differences

Compound: O=C(O)c1cc(O)c2c(c1)C(=O)c1cccc(O)c1C2=O [rhein, 4,5‐dihydroxyanthraquinone‐2‐carboxylic acid]
- concentration at which rhein self‐assembles into a translucent hydrogel [6]: 14100 µM
- mitochondrial membrane potential (ΔΨm) under OGD [2]: recovered
- recovery of cell viability (ATP content) under OGD [3]: no restorative effect
- anti‐inflammatory effect (release of IL‐1β and IL‐6) [4]: reduced the release of these two inflammatory cytokines to some extent
- intracellular ROS level under OGD [7]: significant ROS inhibition

Compound: O=C(O)CC[C@H](NC(=O)[C@H](Cc1ccc(O)cc1)NC(=O)[C@H](Cc1ccccc1)NC(=O)[C@H](Cc1ccccc1)NC(=O)CNC(=O)c1cc(O)c2c(c1)C(=O)c1cccc(O)c1C2=O)C(=O)O [Rh‐GFFYE] (X1-GFFYE-OH)
- morphology of the retina (H&E) ([8]; 7 d after intravitreal injection): no significant change
- retinal function (ERG) of normal rats ([8]; 7 d after intravitreal injection, vs normal group, n = 6): not significantly changed
- serum content of alanine aminotransferase (ALT) [8, 13]: did not show intergroup differences
- serum content of aspartate aminotransferase (AST) [8, 13]: did not show intergroup differences
- histological structures of main visceral organs (heart, liver, spleen, lung, kidney) ([8]; H&E, 7 days after intravitreal injection): did not induce noticeable histological changes
- toxicity on R28 cells (ATP and LDH levels) [9]: no toxic effect
- amplitudes of the oscillatory potentials (OPs) [10]: recovered
- scotopic ERG a and b wave amplitudes [10]: significant recovery
- concentration of rhein in retina at 21 d relative to day 7 ([11]; 21 d after single intravitreal injection): approximately one‐quarter of that at day 7
- concentration of rhein in the ischemic retina [11, 14]: 27.1 ng/g
- concentration of rhein in the normal retina [11, 14]: 15.2 ng/g
- uptake in ischemic retina compared with control non‐ischemic eyes [12]: increased

Reference: PMC10602545, “Retinal Microenvironment‐Protected Rhein‐GFFYE Nanofibers Attenuate Retinal Ischemia‐Reperfusion Injury via Inhibiting Oxidative Stress and Regulating Microglial/Macrophage M1/M2 Polarization” (Advanced Science, 2023)
